Experimental data from patent publication US5681604A, “Stain-inhibiting agent for dyes with affinity for protonatable nitrogen, compositions containing same and uses thereof” (priority 1993, dated 1997).

Legend:
[1] = Stain inhibition: 66 nylon skein (yarn) soaked in cherry KOOL-AID solution; conditions: for AATCC Staining Scale Rating: 1 min soak, dried 24 h; for CIE L / CIE a / CIE b: Minolta Chromameter
Procedure: (§1) Each solution was prepared by mixing 1 gram of the KOOL-AID® powder with enough water to make 450 to 500 cm^3 of solution.
(§2) Solution 1A: prepared as set forth above, no sugar added.
(§3) Solution 1B: Solution 1A+50 parts per million (ppm) tannic acid (certified, Fisher Scientific Co.).
(§4) Solution 1C: Solution 1A+200 ppm tannic acid (same tannic acid as in Solution 1B, hereafter "TA").
(§5) After the solutions were prepared, four 1 in^2 (6.45 cm^2) samples (Carpet Samples 1A, 1B, 1C, and Control) were cut from twisted, heat-set 66 nylon carpet, mock-acid dyed, and four 1-gram samples of 66 nylon skein (Test Fabrics, Middlesex, N.J.) were obtained (Yarn Samples 1A, 1B, 1C, and Control). Carpet Samples 1A, 1B, and 1C were soaked in 50 ml. of Solutions 1A, 1B, and 1C, respectively, for 1 minute, and allowed to dry for 24 hours. The Carpet Control Sample was not exposed to any of the solutions. The same procedure was followed with Yarn Samples 1A, 1B, 1C, and Control. (The carpet and skeins had been scoured in 0.1% non-ionic detergent to remove surface grease and finish.)
(§6) All samples were rinsed thoroughly in distilled water, and allowed to dry.
(§7) The amount of staining on each sample was evaluated by comparison with the AATCC Staining Scale (AATCC Test Method, 175-1991), and by the CIE L, a, b values obtained from the Minolta Chromameter.

[2] = commercially-available tannic acid from natural sources; cited from earlier work
Titration with NaOH = assay type: physicochemical
[3] = Stain inhibition: 66 nylon carpet soaked in cherry KOOL-AID solution; conditions: for AATCC Staining Scale Rating: 1 min soak, dried 24 h; for CIE L / CIE a / CIE b: Minolta Chromameter
Procedure: as §1, §2, §3, §4, §5, §6, §7

mice = conditions: oral, in mice; cited from earlier work
[4] = Stain inhibition: 66 nylon yarn immersed in F, D & C Red 40 / citric acid staining solution
Procedure: 3. […] A second yarn sample, Sample 2B, was immersed in staining/stain-inhibitor solution, Solution B, also for one minute. Both samples were then dried for 24 hours.
2. […] Thus, Solution 3B was prepared by adding 100 ppm of the ECG to Solution 3A.

[5] = Stain-inhibiting activity (general statements)
[6] = 50 ppm TA in cherry KOOL-AID solution
[7] = 200 ppm TA in cherry KOOL-AID solution

Compound: O=C(OC[C@H]1O[C@@H](OC(=O)c2cc(O)c(O)c(OC(=O)c3cc(O)c(O)c(O)c3)c2)[C@H](OC(=O)c2cc(O)c(O)c(OC(=O)c3cc(O)c(O)c(O)c3)c2)[C@@H](OC(=O)c2cc(O)c(O)c(OC(=O)c3cc(O)c(O)c(O)c3)c2)[C@@H]1OC(=O)c1cc(O)c(O)c(OC(=O)c2cc(O)c(O)c(O)c2)c1)c1cc(O)c(O)c(OC(=O)c2cc(O)c(O)c(O)c2)c1 [TA, tannic acid]
- AATCC Staining Scale Rating [1, 6]: 7
- CIE L ([1]; 50 ppm TA): 81
- CIE a ([1]; 50 ppm TA): 12
- CIE b ([1]; 50 ppm TA): 4
- AATCC Staining Scale Rating [1, 7]: 9
- CIE L ([1]; 200 ppm TA): 83
- CIE a ([1]; 200 ppm TA): 8
- CIE b ([1]; 200 ppm TA): 4
- water solubility [2]: water soluble
- inflection point pH when titrated with NaOH (Titration with NaOH): about 4.5
- AATCC Staining Scale Rating [3, 6]: 6
- CIE L ([3]; 50 ppm TA): 78
- CIE a ([3]; 50 ppm TA): 9
- CIE b ([3]; 50 ppm TA): 3
- AATCC Staining Scale Rating [3, 7]: 10
- CIE L ([3]; 200 ppm TA): 83
- CIE a ([3]; 200 ppm TA): 0.8
- CIE b ([3]; 200 ppm TA): 2
- LD50 (mice): 6000 mg/kg

Compound: O=C(O[C@@H]1Cc2c(O)cc(O)cc2O[C@@H]1c1ccc(O)c(O)c1)c1cc(O)c(O)c(O)c1 [ECG, Epicatechin gallate]
- AATCC ([4]; 100 ppm ECG in Red 40 staining solution pH 2.8, 1 min): 7
- CIE L ([4]; 100 ppm ECG, Chromameter): 81
- CIE a ([4]; 100 ppm ECG, Chromameter): 4
- CIE b ([4]; 100 ppm ECG, Chromameter): 2

Compound: Oc1cccc(O)c1O [pyrogallol]
- stain-inhibiting activity [5]: do not appear to exhibit stain-inhibiting activity

Compound: Oc1cccc(O)c1 [resorcinol]
- stain-inhibiting activity [5]: do not appear to exhibit stain-inhibiting activity
